{
  "source": "patent US5760241A",
  "about": "“Thiol derivatives with metallopeptidase inhibitory activity” (priority 1996, dated 1998)",
  "key": {"ACE (SHR lungs)": {"system": "ACE (SHR lungs)", "assay": "Ex vivo ACE-inhibitory activity in lungs of treated SHR", "set-up": "species or system spontaneously hypertensive rats (SHR)", "conditions": "i.v. 0.64 μmoles/kg, 5 minutes", "protocol": "(§1) The ex vivo ACE/NEP-inhibitory activity of the compounds of formula I, in particular, was evaluated by considering the enzymatic activity in tissue homogenates (lung and kidney for the ACE- and NEP-inhibitory activity, respectively) from spontaneously hypertensive rats (SHR), treated with the tested compounds by intravenous or oral route.\nb) ACE-inhibitory activity\nThe ex vivo ACE-inhibitory activity was evaluated by using a radiometric assay method, as reported in the literature by J. W. Ryan et al. in Biochem. J. (1977), 167, 501-504.\nThe inhibitory activity of the compounds of formula I was evaluated in lungs of spontaneously hypertensive rats (SHR), 5 minutes after i.v. injection (0.6, 0.64 and 21 μmoles/kg) and 30 minutes, 60 minutes and 4 hours after oral administration (30 μmoles/kg) of the tested compounds.\nAfter the removal of the lungs from SHR, the lung tissue was homogenized and incubated for 2 hours at 37° C. in the presence of [^3 H]Hyp-Gly-Gly, as a substrate.\nThe reaction was stopped by adding hydrochloric acid.\nThe released radiolabelled hyppuric acid was extracted with ethyl acetate and counted by liquid scintillation spectrometry, according to conventional methods.\nThe ACE-inhibitory activity of the tested compounds was expressed as percentage of ACE-inhibition in SHR lungs.\n(§2) As an example, the percentages of basal enzymatic activity obtained in the ex vivo tests after the administration of compounds 29 and 41, as representative compounds of formula I, and of the comparison compounds R-1, R-2, R-3 and R-4 are reported in the following table 2."}, "NEP (SHR kidneys)": {"system": "NEP (SHR kidneys)", "assay": "Ex vivo NEP-inhibitory activity in kidneys of treated SHR", "set-up": "species or system spontaneously hypertensive rats (SHR)", "conditions": "i.v. 0.64 μmoles/kg, 5 minutes", "protocol": "as §1\n(§3) a) NEP-inhibitory activity\nThe ex vivo NEP-inhibitory activity was evaluated according to the procedure reported in the literature by M. Orlowsky et al., in Biochemistry 1981, 20, 4942-4950.\nThe inhibitory activity of the compounds of formula I was evaluated in kidneys of spontaneously hypertensive rats (SHR), 5 minutes after i.v. injection (0.6, 0.64 and 21 μmoles/kg) and 30 minutes, 60 minutes and 4 hours after oral administration (30 μmoles/kg) of the tested compounds.\nAfter the removal of the kidneys from SHR, the renal tissue was homogenized and incubated for 15 minutes at 37° C. in the presence of Glutaryl-Ala-Ala-Phe-2-naphthylamide (GAAP), as a substrate, and aminopeptidase M at pH 7.6.\nThe reaction was stopped by adding an aqueous solution at 10% of trichloroacetic acid.\nThe released 2-naphthylamine was determined by adding fast garnet dye (2 ml).\nEnzyme reaction rates were determined by measuring the increase in the optical density at 524 nm (OD524) with respect to a standard obtained with 2-naphthylamine complexed with fast garnet.\nThe NEP-inhibitory activity of the tested compounds was expressed as percentage of NEP-inhibition in SHR kidneys.\nas §2"}, "[1]": {"molecular_target": "T1, NEP (membranes from rat kidney cortex) (Rattus norvegicus, UniProt P07861)", "T1 construct": "from tissue; host or cells: kidney cortex membranes of male Sprague-Dawley rats", "T1 sequence (P07861 1-750)": "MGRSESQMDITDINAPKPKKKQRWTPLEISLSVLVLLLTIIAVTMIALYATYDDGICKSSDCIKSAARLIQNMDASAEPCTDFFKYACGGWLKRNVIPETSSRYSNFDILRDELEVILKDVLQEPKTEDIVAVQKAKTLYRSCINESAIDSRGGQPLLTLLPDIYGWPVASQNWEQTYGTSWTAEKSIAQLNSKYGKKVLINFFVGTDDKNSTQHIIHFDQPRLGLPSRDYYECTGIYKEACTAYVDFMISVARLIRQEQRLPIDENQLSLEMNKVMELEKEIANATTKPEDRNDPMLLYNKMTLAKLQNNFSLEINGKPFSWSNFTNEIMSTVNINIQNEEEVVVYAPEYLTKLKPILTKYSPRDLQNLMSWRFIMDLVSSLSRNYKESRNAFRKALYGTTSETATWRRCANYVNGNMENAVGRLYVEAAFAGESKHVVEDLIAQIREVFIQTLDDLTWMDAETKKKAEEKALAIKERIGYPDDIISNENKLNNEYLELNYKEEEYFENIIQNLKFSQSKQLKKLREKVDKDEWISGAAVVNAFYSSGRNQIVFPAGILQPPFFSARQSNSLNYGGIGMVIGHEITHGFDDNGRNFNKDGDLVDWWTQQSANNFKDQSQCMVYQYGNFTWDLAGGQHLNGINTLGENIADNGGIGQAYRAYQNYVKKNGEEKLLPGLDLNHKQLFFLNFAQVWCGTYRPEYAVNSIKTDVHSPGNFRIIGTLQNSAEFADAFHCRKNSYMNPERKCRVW", "assay": "In vitro NEP-inhibitory activity in rat kidney cortex membranes ([3H][Leu5]-enkephaline substrate)", "format": "biochemical, male Sprague-Dawley rats", "conditions": "20 minutes at 30° C.; [3H][Leu5]-enkephaline 15 nM", "protocol": "as §3\nThe NEP-inhibitory activity was evaluated in membranes from rat kidney cortex prepared according to the procedure described by T. Maeda et al. in Biochim. Biophys. Acta 1983, 731(1), 115-120.\nBy working at 0°-4° C., kidneys were removed from male Sprague-Dawley rats weighing approximately 300 g.\nCortex was carefully dissected, finely minced and suspended in a homogenization buffer (10 mM sodium phosphate pH 7.4 containing 1 mM MgCl2, 30 mM NaCl, 0.02% NaN3) 1:15 weight/volume.\nThe tissue was then homogenized for 30 seconds using an Ultra-Turrax homogenizer.\nApproximately 10 ml of homogenate were layered over 10 ml of sucrose (41% weight/volume) and centrifuged at 31200 rpm for 30 minutes at 4° C. in a fixed angle rotor. The membranes were collected from the buffer/sucrose interface, washed twice with 50 mM TRIS/HCl buffer (pH 7.4) and resuspended into the same buffer for storage.\nThe membranes were stored in small aliquots at -80° C. until use.\nThe NEP-inhibitory activity was evaluated according to the method described by C. Llorens et al., in Eur. J. Pharmacol., 69, (1981), 113-116, as reported hereinafter.\nAliquots of the membrane suspension prepared as above described (concentration 5 μg/ml of proteins) were preincubated in the presence of an aminopeptidase inhibitory (Bestatin--1 mM) for 10 minutes at 30° C.\n[^3 H][Leu^5 ]-enkephaline (15 nM) and buffer TRIS/HCl pH 7.4 (50 mM) were added in order to obtain a final volume of 100 μl.\nIncubation (20 minutes at 30° C.) was stopped by adding HCl 0.1M (100 μl).\nThe formation of the metabolite [^3 H]Tyr-Gly-Gly was quantified by chromatography on polystyrene columns (Porapak Q)."}},
  "note": "pIC50: −log10 of the molar value.",
  "data": [
    {"smiles": "O=C(N[C@@H](Cc1ccc(-c2ccccc2)cc1)C(=O)O)C(CS)Cc1ccccc1", "note": "(stereo partly drawn) [compound 41]", "values": [
      {"measurement": "ACE-inhibition (lungs), 5 minutes", "setting": "ACE (SHR lungs)", "value": 49, "unit": "%"},
      {"measurement": "NEP-inhibition (kidneys), 5 minutes", "setting": "NEP (SHR kidneys)", "value": 20, "unit": "%"},
      {"measurement": "pIC50", "setting": "[1]", "value": 8.30}
    ]}
  ]
}
